The series is described as follows: LC-MS/MS determination of P3 after exposure to seminal plasma or vaginal fluid simulant. Format: in vitro ADME, human. As to conditions: triplicates; for P3 level: 37°C, LC-MS/MS, below limit of quantification (2.5 ppm). How it is done:
Individual standard solutions (0.25–250 ppm) of P3 were prepared in acetonitrile (99.9% LC–MS) (J.T.Baker, Deventer, the Netherlands) in the presence of SP (0.5 or 1.0%), VFS or growth medium (GM) and analyzed after 24h, 48h and 1 week. In order to precipitate the proteins in the biological fluids, 1 ml of acetonitrile (1:1) was added to 1 ml of sample and samples were centrifuged at 13,000 rpm for 10 min and filtered ([…] PVDF membrane; Chromafil®Xtra from Macherey-Nagel®) just before analysis, All samples were analyzed as triplicates.
The LC system was a Waters® Alliance 2695 (Waters®) equipped with a quaternary pump, solvent degasser, auto sampler and column oven, coupled to a Photodiode Array Detector Waters 996 PDA (Waters®) scanning from 210 to 600 nm. The separation was performed on a reversed phase column LiChrospher® 100 RP-18 (10 x 4.0mm; Merck®, Germany) operating at 35 °C, using an injection volume of 10 μl. The mobile phase consisted of water [Ultra-pure water (18.2MΩ.cm) from a Millipore-Direct Q3 UV system (Millipore, USA)] with TFA 0.1% (v/v) (98% p.a.; Merck®, Germany) (A) and acetonitrile with TFA 0.1% (v/v) (B) at a flow rate of 0.30 ml/min. The following gradient was used: 70% of A as initial conditions, 70% A to 30% A for 7 min. A cleaning step was performed using 100% of acetonitrile for 1 min and finally the column was re-equilibrated with 70% of eluent A for 5 min.
A triple quadrupole mass spectrometer MicroMass® Quattro micro (Micromass®, Waters®) with an electrospray ionization source (ESI) was coupled to the LC system, described above. The ion source conditions were optimized using a standard solution directly injected in the ion source: temperature 120°C, capillary voltage 3.0 kV and cone voltage 50 V. The compound was ionized in positive ion mode and the spectra, in Full Scan, were recorded in the range m/z 100–1700. All analyses were performed in multiple reactions monitoring (MRM) mode in order to achieve a high selectivity and sensitivity. […]

The values below come from paper PMC5905968, “Evaluation of the fusion inhibitor P3 peptide as a potential microbicide to prevent HIV transmission in women” (PLoS ONE, 2018).

Some results are limits rather than exact numbers.

As for `CC[C@H](C)[C@H](NC(=O)[C@H](CC(N)=O)NC(=O)[C@H](C)NC(=O)[C@H](CCC(=O)O)NC(=O)[C@H](CC(C)C)NC(=O)[C@H](Cc1ccc(O)cc1)NC(=O)[C@H](CCCNC(=N)N)NC(=O)[C@@H](NC(=O)[C@H](CCC(N)=O)NC(=O)[C@H](CCC(N)=O)NC(=O)[C@H](CCC(=O)O)NC(=O)[C@H](Cc1c[nH]c2ccccc12)NC(=O)[C@H](CCC(=O)O)NC(=O)[C@H](CCC(N)=O)NC(=O)[C@H](Cc1c[nH]c2ccccc12)NC(C)=O)C(C)C)C(=O)N[C@@H](CO)C(=O)N[C@@H](CCC(N)=O)C(=O)N[C@@H](CCCNC(=N)N)C(=O)N[C@@H](CC(C)C)C(=O)N[C@@H](CCC(=O)O)C(=O)N[C@@H](CCC(N)=O)C(=O)N[C@@H](C)C(=O)N[C@@H](CCC(N)=O)C(=O)N[C@H](C(=O)N[C@@H](CCC(N)=O)C(=O)N[C@@H](CCC(N)=O)C(=O)N[C@@H](CCC(=O)O)C(=O)N[C@@H](CCCCN)C(=O)N[C@@H](CC(N)=O)C(=O)N[C@@H](CCSC)C(=O)N[C@@H](Cc1ccc(O)cc1)C(=O)N[C@@H](CCC(=O)O)C(=O)N[C@@H](CC(C)C)C(=O)N[C@@H](CCC(N)=O)C(N)=O)[C@@H](C)CC` [P3], the P3 level (after 48h in 1% human seminal plasma) was < 2.5 µg/mL and the P3 level (after one week in 0.5% human seminal plasma) is < 2.5 µg/mL. For the same compound, the “detection of P3 in the presence of VFS” value (vaginal fluid simulant pH 4.2, LC-MS/MS (MRM)) is given as “readily detectable”.
